Test [1] concerns Rattus norvegicus. The test is described as follows: Anti-inflammatory activity in Rattus norvegicus albino (rat) assessed as inhibition of carrageenan-induced paw edema at 10 mg/kg, ip administered 1 hr prior tocarrageenan-challenge measured after 3 hr relative to control. Format: functional. Particulars: route intraperitoneal. (In the carrageenan paw model, swelling and tenderness develop within hours.)

For test [2], the system named is Rattus norvegicus. The test is described as follows: Anti-inflammatory activity in Rattus norvegicus albino (rat) assessed as inhibition of carrageenan-induced paw edema at 10 mg/kg, ip administered 1 hr prior tocarrageenan-challenge measured after 3 hr relative to indomethacin. Format: functional. The conditions noted are these: route intraperitoneal.

Consider `CCC(=O)N1N=C(c2ccc(N3CCOCC3)cc2)CC1c1cc(OC)c(OC)c(OC)c1` (stereo not given), for which the results for the inhibition in vivo at 10 mg/kg in test [1] and in test [2] were 1.08% and 1.84%, respectively.

`COc1ccccc1C1CC(c2ccc(N3CCOCC3)cc2)=NN1C(C)=O` (stereo not given): the inhibition in vivo at 10 mg/kg in test [1] was found to be 31.1%; in test [2], 52.8%.

Turning to `COc1ccc(C2CC(c3ccc(N4CCOCC4)cc3)=NN2C(C)=O)cc1OC` (stereo not given), the inhibition in vivo at 10 mg/kg in test [1] came to 5.78%; in test [2] it was 9.82%.

As to `CC(=O)N1N=C(c2ccc(N3CCOCC3)cc2)CC1c1ccc(Br)cc1` (stereo not given), the inhibition in vivo at 10 mg/kg in test [1] was 11.2%; in test [2], 19%.

In the case of `CCC(=O)N1N=C(c2ccc(N3CCOCC3)cc2)CC1c1cccs1` (stereo not given), the inhibition in vivo at 10 mg/kg in test [1] came out at 1.08%; in test [2], 1.84%.

As for `COc1cc(C2CC(c3ccc(N4CCOCC4)cc3)=NN2C(C)=O)cc(OC)c1OC` (stereo not given), the results for the inhibition in vivo at 10 mg/kg in test [1] and in test [2] were 3.61% and 6.13%, respectively.

Take `CCC(=O)N1N=C(c2ccc(N3CCOCC3)cc2)CC1c1ccc(OC)c(OC)c1` (stereo not given): the values for the inhibition in vivo at 10 mg/kg in test [1] and in test [2] were 31.1% and 52.8%, respectively.

Turning to `COc1cc(OC)cc(C2CC(c3ccc(N4CCOCC4)cc3)=NN2C(C)=O)c1` (stereo not given), the inhibition in vivo at 10 mg/kg in test [1] amounted to 13.4%; in test [2], 22.7%.

`COc1ccc2c(c1)c(CC(=O)O)c(C)n2C(=O)c1ccc(Cl)cc1` [INDOMETHACIN]: the inhibition in vivo at 10 mg/kg in test [1] worked out at 58.8%.

For `CC(=O)N1N=C(c2ccc(N3CCOCC3)cc2)CC1c1cccs1` (stereo not given), the inhibition in vivo at 10 mg/kg in test [1] was 6.86%; in test [2], 11.7%.

Turning to `CCC(=O)N1N=C(c2ccc(N3CCOCC3)cc2)CC1c1ccccc1OC` (stereo not given), the inhibition in vivo at 10 mg/kg in test [1] amounted to 6.14%; in test [2], 10.4%.

As for `CCC(=O)N1N=C(c2ccc(N3CCOCC3)cc2)CC1c1ccc(Br)cc1` (stereo not given), the values for the inhibition in vivo at 10 mg/kg in test [1] and in test [2] were 18.4% and 31.3%, respectively.

In the case of `CCC(=O)N1N=C(c2ccc(N3CCOCC3)cc2)CC1c1cc(OC)cc(OC)c1` (stereo not given), the figures for the inhibition in vivo at 10 mg/kg in test [1] and in test [2] were 15.9% and 27%, respectively.

What is called inhibition in vivo is the drop in the measured response relative to a control, in per cent.

Source of the values: ChEMBL document CHEMBL3045785, “Synthesis and anti-inflammatory activity of 1-acetyl/propanoyl-5-aryl-3-(4-morpholinophenyl)-4,5-dihydro-1H-pyrazole derivatives” (2012).
